Measurements from BindingDB's records for doi:10.1073/pnas.0608389103 (Johns Hopkins University, 2006).

Key:
[1] = biological target: Methionine aminopeptidase 2 (Homo sapiens, UniProt P50579); assay: MetAP Inhibition Assay; details: pH 7.5; 22 °C
Procedure: (§1) The MetAP reaction with Co2+ as a cofactor is coupled to a prolyl aminopeptidase (ProAP) using Met-Pro-p-nitroanilide as substrate. MetAP-catalyzed cleavage of the N-terminal methionine produces prolyl-p-nitroanilide, which is rapidly hydrolyzed by ProAP to release a chromogenic product. […] The initial rate was calculated from the early part of the reaction progress curve (<5 min). Activity assays were performed in triplicate using eight to 16 concentrations of substrate or inhibitor.

[2] = biological target: Methionine aminopeptidase 1 (Homo sapiens, UniProt P53582); assay: MetAP Inhibition Assay; details: pH 7.5; 22 °C
Procedure: as §1

Methionine aminopeptidase 2, sequence (P50579 whole entry): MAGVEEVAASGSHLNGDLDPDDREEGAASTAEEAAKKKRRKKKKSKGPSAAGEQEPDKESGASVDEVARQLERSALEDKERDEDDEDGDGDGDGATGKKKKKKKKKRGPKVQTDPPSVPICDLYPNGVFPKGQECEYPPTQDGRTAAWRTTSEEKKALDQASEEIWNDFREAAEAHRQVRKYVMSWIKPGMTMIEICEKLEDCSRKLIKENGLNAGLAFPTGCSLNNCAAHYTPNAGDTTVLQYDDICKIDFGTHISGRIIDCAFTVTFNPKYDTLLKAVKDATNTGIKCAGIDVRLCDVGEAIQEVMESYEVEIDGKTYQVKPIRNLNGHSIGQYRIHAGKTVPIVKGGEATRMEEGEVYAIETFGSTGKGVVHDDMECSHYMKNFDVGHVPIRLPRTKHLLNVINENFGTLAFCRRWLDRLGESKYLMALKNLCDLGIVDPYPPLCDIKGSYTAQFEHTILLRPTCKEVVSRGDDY

Structure (SMILES)	IC50 [1] [µM]	IC50 [2] [µM]
O=C(CCc1ccccc1)Nc1cccnc1C(=O)Nc1nccs1 [3-(3-phenylpropanamido)-N-(1,3-thiazol-2-yl)pyridine-2-carboxamide]	> 500	3.5
CC(C)C=Nc1cccnc1C(=O)Nc1nccs1 [3-[(E)-(2-methylpropylidene)amino]-N-(1,3-thiazol-2-yl)pyridine-2-carboxamide]	> 1000	6.4

Now from value to molecule:

IC50 [1] [µM]	IC50 [2] [µM]	Structure (SMILES)
> 300		CC(C)(C)OC(=O)Nc1cccnc1C(=O)Nc1nccs1 [tert-butyl N-[2-(1,3-thiazol-2-ylcarbamoyl)pyridin-3-yl]carbamate]
> 500	> 500	CCCCCCCC(=O)Nc1cccnc1C(=O)Nc1nccs1 [3-octanamido-N-(1,3-thiazol-2-yl)pyridine-2-carboxamide]
> 500		CC(C)(C)C(=O)Nc1cccnc1C(=O)Nc1nccs1 [3-(2,2-dimethylpropanamido)-N-(1,3-thiazol-2-yl)pyridine-2-carboxamide]
